The test deals with T1, human GPR40 (Homo sapiens, UniProt O14842).
T1 construct: expressed in transfected cells
Description: Inositol Phosphate Turnover (IP1) Assay. Type of test: cell-based. The following applies: HEK cells stably expressing human GPR40, CisBio IP-One kit, 60 minutes at 37 degrees; for pEC50: read-out: Human IP1 EC50. As for the experimental part: Human GPR40 stable cell-lines were generated in HEK cells. The expression plasmids were transfected using lipofectamine (Life Technologies) following manufacturer's instructions. Stable cell-lines were generated following drug selection and single cell cloning. The assay was performed in 384-well format. HEK cells stably expressing human GPR40 were plated at 7500 cells per well in growth medium (DMEM/10% fetal calf serum). Cell plates were then incubated 16 hours at 37 degrees in a 5% CO2 incubator. Measurement of Inositol Phosphate Turnover (IP1) was performed using the CisBio IP-One kit (Part number 62IPAPEB). After the 16 hour incubation, the growth media was removed by centrifugation using the BlueWasher (AusWasher GUI Ver. v1.0.1.8) Protocol #21-“Light Dry” and 10 ul of stimulation buffer (prepared as described in the kit) was added to each well. In a separate plate, compounds were diluted in DMSO (200-fold over the final concentration in the assay well) and 50 nl was acoustically transferred to the appropriate well in the assay cell plate. The plates were then incubated for 60 minutes at 37 degrees in a 5% CO2 incubator. 10 ul of detection buffer (also prepared as described in the IP-One kit) was added to each well and the plates were incubated at room temperature for 60 minutes in the dark. The plates were then read in a Perkin Elmer EnVision or equivalent reader able to measure FRET. […] Data was normalized to % activity using a reference compound and EC50s determined using a standard 4-parameter fit.

pEC50: −log10 of the molar value. Read-outs that look alike come from different tables or passages of the source.

T1 sequence (O14842 whole entry): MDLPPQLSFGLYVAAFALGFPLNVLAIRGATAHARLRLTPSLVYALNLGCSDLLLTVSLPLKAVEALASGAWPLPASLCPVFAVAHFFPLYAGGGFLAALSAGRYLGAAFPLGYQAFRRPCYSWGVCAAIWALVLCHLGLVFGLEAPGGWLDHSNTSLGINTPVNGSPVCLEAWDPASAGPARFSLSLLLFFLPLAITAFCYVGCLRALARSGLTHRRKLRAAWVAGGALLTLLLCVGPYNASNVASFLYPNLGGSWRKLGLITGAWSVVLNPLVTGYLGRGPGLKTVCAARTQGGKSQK

Turning to `C[C@H](C(=O)O)[C@H](c1ccc2c(c1)OC1(CC2)CC(NCc2cc(C(F)(F)F)ccc2C(F)(F)F)C1)C1CC1` (single isomer, unassigned) [Example 96], the pEC50 (usually the negative decadic logarithm of the EC50, by convention in mol/L) is 7.91.

On to `C[C@H](C(=O)O)[C@H](c1ccc2c(c1)OC1(CC2)CC(N(C)Cc2cc(C(F)(F)F)ccc2C(F)(F)F)C1)C1CC1` (single isomer, unassigned) [Example 97], for which the pEC50 is 7.79.

On to `C[C@H](C(=O)O)[C@H](c1ccc2c(c1)OC1(CC2)CC(N(C)Cc2cc(C(F)(F)F)ccc2C(F)(F)F)C1)C1CC1` (single isomer, unassigned) [Example 98], for which the pEC50 is 8.79.

As to `COc1ncc(C(F)(F)F)cc1C(C)N1CCC2(CCc3ccc([C@H](C4CC4)[C@H](C)C(=O)O)cc3O2)CC1` (single isomer, unassigned) [Example 102, (2S,3R)-3-cyclopropyl-3-(1′-((R or S)-1-(2-methoxy-5-(trifluoromethyl)pyridin-3-yl)ethyl)spiro-[chroman-2,4′-piperidin]-7-yl)-2-methylpropanoic Acid], the pEC50 is 6.00.

`COc1ncc(C(F)(F)F)cc1C(C)N1CCC2(CCc3ccc([C@H](C4CC4)[C@H](C)C(=O)O)cc3O2)CC1` (single isomer, unassigned) [Example 103, (2S,3R)-3-cyclopropyl-3-(1′-((S or R)-1-(2-methoxy-5-(trifluoro-methyl)pyridin-3-yl)ethyl)spiro[chroman-2,4′-piperidin]-7-yl)-2-methylpropanoic acid]: the pEC50 is 6.85.

As for `COc1ccc(C(F)(F)F)c(C(C)N2CCC3(CCc4ccc([C@H](C5CC5)[C@H](C)C(=O)O)cc4O3)CC2)n1` (single isomer, unassigned) [Example 104, sodium (2S,3R)-3-cyclopropyl-3-(1′-((R or S)-1-(6-methoxy-3-(trifluoromethyl)pyridin-2-yl)ethyl)spiro[chroman-2,4′-piperidin]-7-yl)-2-methylpropanoate], the pEC50 was 7.22.

`COc1ccc(C(F)(F)F)c(C(C)N2CCC3(CCc4ccc([C@H](C5CC5)[C@H](C)C(=O)O)cc4O3)CC2)n1` (single isomer, unassigned) [Example 105, sodium (2S,3R)-3-cyclo-propyl-3-(1′-((S or R)-1-(6-methoxy-3-(trifluoromethyl)pyridin-2-yl)ethyl)-spiro-[chroman-2,4′-piperidin]-7-yl)-2-methylpropanoate]: the pEC50 is 6.90.

Regarding `COc1cc(C(C)N2CCC3(CCc4ccc([C@H](C5CC5)[C@H](C)C(=O)O)cc4O3)CC2)c(C(F)(F)F)cn1` (single isomer, unassigned) [Example 106, sodium (2S,3R)-3-cyclo-propyl-3-(1′-((R or S)-1-(2-methoxy-5-(trifluoro-methyl)pyridin-4-yl)ethyl)spiro[chroman-2,4′-piperidin]-7-yl)-2-methylpropanoate], the pEC50 was 7.81.

Turning to `COc1cc(C(C)N2CCC3(CCc4ccc([C@H](C5CC5)[C@H](C)C(=O)O)cc4O3)CC2)c(C(F)(F)F)cn1` (single isomer, unassigned) [Example 107, sodium (2S,3R)-3-cyclo-propyl-3-(1′-((S or R)-1-(2-methoxy-5-(trifluoro-methyl)pyridin-4-yl)ethyl)spiro[chroman-2,4′-piperidin]-7-yl)-2-methylpropanoate], the negative-log EC50 (pEC50) was 8.67.

Consider `CC(c1cc(C(F)(F)F)cc(Cl)c1F)N1CCC2(CCc3ccc([C@H](C4CC4)[C@H](C)C(=O)O)cc3O2)CC1` (single isomer, unassigned) [Example 108, (2S,3R)-3-(1′-((R or S)-1-(3-chloro-2-fluoro-5-(trifluoromethyl)phenyl)ethyl)spiro-[chroman-2,4′-piperidin]-7-yl)-3-cyclopropyl-2-methylpropanoic Acid], for which the midpoint of the response (Human IP1 EC50 (nM)), the EC50, lay at 15.8 nM. In other words, the double-digit nanomolar range.

Regarding `CCCn1cc(-c2ccc(OC(F)(F)F)c(C(C)N3CCC4(CCc5ccc([C@H](C6CC6)[C@H](C)C(=O)O)cc5O4)CC3)c2)cn1` (single isomer, unassigned) [Example 113, sodium (2S,3R)-3-cyclopropyl-2-methyl-3-(1′-S or R)-1-(5-(1-propyl-1H-pyrazol-4-yl)-2-(trifluoromethoxy)phenyl)eth-yl)spiro[chroman-2,4′-piperidin]-7-yl)propanoate], the negative-log EC50 (pEC50) is 6.24.

With `Cc1nocc1-c1ccc(OC(F)(F)F)c(C(C)N2CCC3(CCc4ccc([C@H](C5CC5)[C@H](C)C(=O)O)cc4O3)CC2)c1` (single isomer, unassigned) [Example 115, (2S,3R)-3-cyclopropyl-2-methyl-3-(1′-((R or S)-1-(5-(3-methylisoxazol-4-yl)-2-(trifluoromethoxy)phenyl)eth-yl)spiro[chroman-2,4′-piperidin]-7-yl)propanoic acid], the pEC50 is 7.38.

With `Cc1nocc1-c1ccc(OC(F)(F)F)c(C(C)N2CCC3(CCc4ccc([C@H](C5CC5)[C@H](C)C(=O)O)cc4O3)CC2)c1` (single isomer, unassigned) [Example 116, (2S,3R)-3-cyclopropyl-2-methyl-3-(1′-((R or S)-1-(5-(3-methylisoxazol-4-yl)-2-(trifluoromethoxy)phenyl)eth-yl)spiro[chroman-2,4′-piperidin]-7-yl)propanoic acid], the negative logarithm of the EC50 (pEC50) was 6.49.

In the case of `CC(c1cc(-c2ccoc2)ccc1OC(F)(F)F)N1CCC2(CCc3ccc([C@H](C4CC4)[C@H](C)C(=O)O)cc3O2)CC1` (single isomer, unassigned) [Example 117, (2S,3R)-3-cyclopropyl-3-(1′-((R or S)-1-(5-(furan-3-yl)-2-(trifluoro-methoxy)-phenyl)ethyl)spiro[chroman-2,4′-piperidin]-7-yl)-2-methylpropanoic acid], the pEC50 is 7.43.

Consider `CC(c1cc(-c2ccoc2)ccc1OC(F)(F)F)N1CCC2(CCc3ccc([C@H](C4CC4)[C@H](C)C(=O)O)cc3O2)CC1` (single isomer, unassigned) [Example 118, (2S,3R)-3-cyclopropyl-3-(1′-((S or R)-1-(5-(furan-3-yl)-2-(trifluoromethoxy)phenyl)ethyl)spiro[chroman-2,4′-piperidin]-7-yl)-2-methylpropanoic acid], for which the pEC50 is 8.64.

On to `CCc1[nH]c(C(=O)O)cc1-c1ccc(OC(F)(F)F)c(C(C)N2CCC3(CCc4ccc([C@H](C5CC5)[C@H](C)C(=O)O)cc4O3)CC2)c1` (single isomer, unassigned) [Example 120, 4-(3-((S or R)-1-(7-((1R,2S)-2-carboxy-1-cyclopropylpropyl)spiro[chro-man-2,4′-piperidin]-1′-yl)ethyl)-4-(trifluoro-methoxy)phenyl)-5-ethyl-1H-pyrrole-2-carboxylic acid], for which the negative logarithm of the EC50 (pEC50) is 6.30.

Turning to `CCC(c1cc(C(F)(F)F)ccc1C(F)(F)F)N1CCC2(CCc3ccc([C@H](C4CC4)[C@H](C)C(=O)O)cc3O2)CC1` (stereo in doubt) [Example 9, (2S,3R)-3-(1′-((S)-1-(2,5-bis(trifluoromethyl)phenyl)propyl)spiro[chroman-2,4′-piperidin]-7-yl)-3-cyclopropyl-2-methylpropanoic Acid], the pEC50 is 9.14.

As to `CC(c1cc(F)ccc1OC(F)(F)F)N1CCC2(CCc3ccc([C@H](C4CC4)[C@H](C)C(=O)O)c(F)c3O2)CC1` (stereo partly drawn) [Example 2, (2S,3R)-3-cyclopropyl-3-(8-fluoro-1′-(1-(5-fluoro-2-(trifluoro-methoxy)phenyl)ethyl)-spiro[chroman-2,4′-piperidin]-7-yl)-2-methylpropanoic acid], the pEC50 is 8.48.

Take `C[C@H](C(=O)O)[C@H](c1ccc2c(c1F)OC1(CC2)CCN(Cc2cc(F)ccc2OC(F)(F)F)CC1)C1CC1` [Example 3, (2S,3R)-3-cyclopropyl-3-(8-fluoro-1′-(5-fluoro-2-(trifluoromethoxy)-benzyl)spiro[chroman-2,4′-piperidin]-7-yl)-2-methylpropanoic acid]: the pEC50 was 7.93.

On to `C[C@H](C(=O)O)[C@H](c1ccc2c(c1F)OC1(CC2)CCN(Cc2cc(Cl)ccc2OC(F)(F)F)CC1)C1CC1` [Example 4, (2S,3R)-3-(1′-(5-chloro-2-(trifluoromethoxy)benzyl)-8-fluorospiro[chroman-2,4′-piperidin]-7-yl)-3-cyclopropyl-2-methylpropanoic Acid], for which the pEC50 was 8.09.

Take `C[C@H](C(=O)O)[C@H](c1ccc2c(c1F)OC1(CC2)CCN([C@H](C)c2cc(C(F)(F)F)ccc2C(F)(F)F)CC1)C1CC1` [Example 6, (2S,3R)-3-(1′-((R)-1-(2,5-bis(trifluoromethyl)-phenyl)ethyl)-8-fluoro-spiro[chroman-2,4′-piperidin]-7-yl)-3-cyclo-propyl-2-methyl-propanoic acid]: the pEC50 was 7.92.

Take `CC[C@@H](c1cc(C(F)(F)F)ccc1C(F)(F)F)N1CCC2(CCc3ccc([C@H](C4CC4)[C@H](C)C(=O)O)cc3O2)CC1` [Example 7, sodium (2S,3R)-3-(1′-((S)-1-(2,5-bis(trifluoro-methyl)phenyl)propyl)-spiro[chroman-2,4′-piperidin]-7-yl)-3-cyclo-propyl-2-methyl-propanoic acid]: the pEC50 is 8.67.
